Test results as given in article PMC8998618, “A Pharmacokinetic and Metabolism Study of the TRPC6 Inhibitor SH045 in Mice by LC-MS/MS” (International Journal of Molecular Sciences, 2022).

Assays:
[1] = NADPH-dependent microsomal conversion, Michaelis-Menten kinetics (HLM); format: in vitro ADME, human; conditions: HLM 0.5 mg/mL protein, SH045 0.5 to 100 µM, Lineweaver-Burk
Procedure: (§1) For determination of vmax and Michaelis-Menten constant Km of the NADPH-dependent microsomal depletion of SH045, incubations in MLM and HLM were performed. Testosterone instead of SH045 was used as positive control (Supplementary Materials SM6).
(§2) Negative controls were obtained by omission of respective components. The overall velocity (v) of degradation was calculated from altered SH045 concentration (∆c) obtained from reduction peak area ratio of SH045 as: v = ∆c/incubation time × concentration of enzyme (nmol/min × mg). Mean maximum rate vmax and Km were calculated using Lineweaver-Burk transformation. […]
(§3) The tissue binding of SH045 was analyzed exemplarily in lung, liver and kidney homogenate using ultrafiltration [5]. […] 20 µL of the mixture and the filtrate were analyzed for SH045. […]
(§4) Testosterone (10 µM in ACN/DPBS 2/3, v/v) instead of SH045 was used as positive control and analyzed by an appropriate HPLC method with UV detection.
(§5) Negative controls contained either no NADPH, no MLM or HLM or none of them. The overall velocity (v) of degradation was calculated from altered SH045 concentration (∆c) obtained from reduction peak area ratio of SH045 as: v = ∆c / incubation time × concentration of enzyme × volume (nmol/ min × mg). Mean maximum rate vmax and Michaelis-Menten constant Km were calculated using Lineweaver-Burk transformation. […]

[2] = NADPH-dependent microsomal conversion, Michaelis-Menten kinetics (MLM); format: in vitro ADME, mouse; conditions: MLM 0.5 mg/mL protein, SH045 0.5 to 100 µM, Lineweaver-Burk
Procedure: as §1, §2, §3, §4, §5

vmax [1]: 0.8 ± 0.1 nmol/min/mg
Km at 10 min ([1]; human, human liver microsomes): 4.1 ± 0.8 µM
vmax [2]: 9.8 ± 0.8 nmol/min/mg
Km at 10 min ([2]; mouse, mouse liver microsomes): 48.4 ± 3.9 µM
Structure (SMILES): C=C[C@@](C)(O)CC[C@H]1C(=C)C[C@H](OC(=O)NC)[C@H]2C(C)(C)CCC[C@]12C [SH045, (1S,4S,4aR,8aS)-4-((S)-3-Hydroxy-3-methylpent-4-en-1-yl)-4a,8,8-trimethyl-3-methylenedecahydronaphthalen-1-yl methylcarbamate]
